9 compounds from PubChem BioAssay (NCI) can be followed below.

Some test systems named below: 786-0 renal; HCT-116 colon; K-562 leukemia; MCF7 breast; MDA-MB-231 breast; MDA-MB-435; NCI-H226 lung; SK-OV-3 ovarian; SNB-75 CNS; TK-10 renal.
What all share (assay): NCI tumour cell line growth inhibition, 48 h

SMILES strings stand for the structures.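 Protocol summary: plate cells (96-well), add compound at 5 concentrations, incubate 48 h, interpolate endpoints linearly. GI50: concentration for 50% inhibition of growth. TGI: total growth inhibition.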 Where a SMILES comes first, the peptide text is derived from it. Bridges are numbered along the chain shown (N, C = ends). Roman numbers before positions name the chains, in order. [ ]: non-standard residue; d: D form. The star is where a group is joined. Quinoxaline2carbonyl = O=C(c1cnc2ccccc2n1)*; NMeV = CN[CH](C(=O)O)C(C)C; NMeC = CN[CH](CS)C(=O)O

As for `CC1NC(=O)C(NC(=O)c2cnc3ccccc3n2)COC(=O)C(C(C)C)N(C)C(=O)C2CSSCC(C(=O)N(C)C(C(C)C)C(=O)OCC(NC(=O)c3cnc4ccccc4n3)C(=O)NC(C)C(=O)N2C)N(C)C1=O` (stereo not drawn) (I: Quinoxaline2carbonyl-SA[NMeC][NMeV] / II: Quinoxaline2carbonyl-SA[NMeC][NMeV]; ester I:1-II:C, I:C-II:1; disulfide I:3-II:3; configuration not given here), the TGI in the assay on 786-0 renal was 2.27 µM; in the assay with HCT-116 colon, 14 µM; in the assay on K-562 leukemia, > 51.5 µM; with MCF7 breast, < 0.01 µM; in the assay on MDA-MB-231 breast, 0.294 µM; with MDA-MB-435 it was < 0.01 µM. Moreover, the TGI is 0.0237 µM in the assay with NCI-H226 lung, 6.87 µM in the assay with SK-OV-3 ovarian, < 0.01 µM in the assay on SNB-75 CNS and > 5.39 µM with TK-10 renal.

As to `CN(CC(N)=O)C(=O)N(CCCl)N=O`, the TGI in the assay on 786-0 renal, in the assay on HCT-116 colon, in the assay on K-562 leukemia, with MCF7 breast, with MDA-MB-231 breast and in the assay with MDA-MB-435 was > 100 µM in each case. Further, the TGI with NCI-H226 lung, with SK-OV-3 ovarian, in the assay with SNB-75 CNS and in the assay on TK-10 renal was > 100 µM each time.

As to `CCN1C(=O)N(CC)C2C1NN=c1s/c(=C3\C(=O)N(CCc4ccccc4)c4ccccc43)c(=O)n12` (stereo not drawn), the GI50 in the assay on 786-0 renal was 1.04 µM; with HCT-116 colon, 0.347 µM; in the assay with K-562 leukemia, 0.353 µM; in the assay with MCF7 breast, 0.353 µM; in the assay with MDA-MB-231 breast it was 0.844 µM; with MDA-MB-435, 0.245 µM. Further, the GI50 in the assay with NCI-H226 lung was 0.811 µM; with SK-OV-3 ovarian it was 0.542 µM; with SNB-75 CNS, 0.289 µM; with TK-10 renal, 4.22 µM. In addition, the TGI in the assay on 786-0 renal is 13.5 µM; with HCT-116 colon it was 1.4 µM; with K-562 leukemia, > 100 µM; in the assay with MCF7 breast, > 67.7 µM; with MDA-MB-231 breast, 7.51 µM; in the assay with MDA-MB-435, 0.684 µM. Further, the TGI with NCI-H226 lung turned out to be 3.78 µM; with SK-OV-3 ovarian, 5.77 µM; in the assay on SNB-75 CNS it was 2.09 µM; with TK-10 renal, 29.2 µM.

Take `O=C(O)COc1c(Cl)cc(Cl)c2cccnc12`: the TGI with 786-0 renal, with HCT-116 colon, in the assay on K-562 leukemia, in the assay on MCF7 breast, in the assay on MDA-MB-231 breast and in the assay with MDA-MB-435 was > 100 µM each time. The TGI in the assay with NCI-H226 lung, with SK-OV-3 ovarian, with SNB-75 CNS and in the assay on TK-10 renal was > 100 µM in each case.

For the compound `CCCCn1c(=O)c2c(nc3n2CCCN3CCc2ccc(OCC(=O)NCCN(CC)CC)cc2)n(CCCC)c1=O`, the GI50 in the assay with 786-0 renal is 0.912 µM; in the assay with HCT-116 colon it was 1.63 µM; in the assay on K-562 leukemia, 1.31 µM; in the assay with MCF7 breast, 1.95 µM; in the assay with MDA-MB-231 breast, 1.91 µM; in the assay with MDA-MB-435 it was 5.08 µM. Further, the GI50 in the assay on NCI-H226 lung was 7.13 µM; in the assay on SK-OV-3 ovarian, 5.93 µM; with SNB-75 CNS, 1.93 µM; in the assay with TK-10 renal, 7.26 µM. The TGI in the assay on 786-0 renal came out at 2 µM; in the assay with HCT-116 colon, 6.42 µM; in the assay with K-562 leukemia, 4.39 µM; in the assay with MCF7 breast, 8.97 µM; with MDA-MB-231 breast, 7.26 µM; with MDA-MB-435 it was 11.1 µM. Further, the TGI came out at 16.9 µM in the assay with NCI-H226 lung, 12.6 µM in the assay with SK-OV-3 ovarian, 10 µM in the assay with SNB-75 CNS and 14.6 µM with TK-10 renal.

As for `CCCCCn1sc(=O)n(Cc2ccc(CNC(=O)OCc3ccc4cccc(O)c4n3)cc2)c1=O`, the GI50 in the assay on 786-0 renal is 1.17 µM; with HCT-116 colon it was 0.419 µM; in the assay with K-562 leukemia, 0.846 µM; with MCF7 breast, 1.34 µM; with MDA-MB-231 breast it was 1.32 µM; in the assay on MDA-MB-435, 1.17 µM. In addition, the GI50 in the assay with NCI-H226 lung was 1.47 µM; with SK-OV-3 ovarian, 4.58 µM; in the assay with SNB-75 CNS, 1.14 µM; with TK-10 renal it was 1.19 µM. For the same compound, the TGI in the assay with 786-0 renal was 2.89 µM; with HCT-116 colon, 2.69 µM; with K-562 leukemia, 15.7 µM; with MCF7 breast it was 3.7 µM; in the assay with MDA-MB-231 breast it was 2.63 µM; with MDA-MB-435 it was 2.5 µM. For the same compound, the TGI was determined as 3.31 µM in the assay on NCI-H226 lung, 18.4 µM with SK-OV-3 ovarian, 4.52 µM in the assay on SNB-75 CNS and 3.05 µM in the assay with TK-10 renal.

Regarding `COc1ccc(OC)c(C2SCC(=O)N2NC(=O)C(O)c2ccccc2)c1` (stereo not drawn), the GI50 in the assay on 786-0 renal, in the assay on HCT-116 colon, in the assay with K-562 leukemia, in the assay on MCF7 breast, with MDA-MB-231 breast and with MDA-MB-435 was > 100 µM throughout. Moreover, the GI50 with NCI-H226 lung, in the assay on SK-OV-3 ovarian, in the assay on SNB-75 CNS and in the assay with TK-10 renal was > 100 µM in each case. Also, the TGI in the assay with 786-0 renal, with HCT-116 colon, in the assay with K-562 leukemia, in the assay with MCF7 breast, in the assay with MDA-MB-231 breast and in the assay on MDA-MB-435 was > 100 µM each time. Further, the TGI in the assay with NCI-H226 lung, with SK-OV-3 ovarian, with SNB-75 CNS and with TK-10 renal was > 100 µM each time.

As to `N/N=C1\CC(=O)NC(=O)N1`, the TGI with 786-0 renal, with HCT-116 colon, in the assay with K-562 leukemia, with MCF7 breast, with MDA-MB-231 breast and with MDA-MB-435 was > 100 µM in each case. Also, the TGI in the assay with NCI-H226 lung, with SK-OV-3 ovarian, in the assay on SNB-75 CNS and with TK-10 renal was > 100 µM throughout.

On to `CC(=O)Oc1ccccc1C(=O)/C=C/c1cccc([N+](=O)[O-])c1`, for which the GI50 in the assay on 786-0 renal is 1.83 µM; with HCT-116 colon, 1.66 µM; in the assay with K-562 leukemia, 3.14 µM; in the assay with MCF7 breast, 1.99 µM; in the assay with MDA-MB-231 breast, 3.48 µM; in the assay with MDA-MB-435 it was 1.65 µM. Moreover, the GI50 was 10.9 µM in the assay on NCI-H226 lung, 12.9 µM in the assay with SK-OV-3 ovarian and 2.94 µM in the assay on SNB-75 CNS. Further, the TGI was 3.6 µM with 786-0 renal; 3.07 µM with HCT-116 colon; > 100 µM in the assay with K-562 leukemia; 10.6 µM in the assay with MCF7 breast; 13.5 µM with MDA-MB-231 breast; 3.55 µM in the assay on MDA-MB-435. Further, the TGI with NCI-H226 lung worked out at 30.6 µM; in the assay on SK-OV-3 ovarian it was 29.2 µM; in the assay on SNB-75 CNS, 14.4 µM.
